Measurements published in patent US20140323504A1, “Pyrazolo[4,3-c]Pyridine Derivatives As Kinase Inhibitors” (Cellzome Limited, priority 2011, published 2014).
“Also recorded” adds a separate entry of the source.

Target: T1, JAK3 (Homo sapiens, UniProt P52333)
T1 sequence (P52333 1-1124): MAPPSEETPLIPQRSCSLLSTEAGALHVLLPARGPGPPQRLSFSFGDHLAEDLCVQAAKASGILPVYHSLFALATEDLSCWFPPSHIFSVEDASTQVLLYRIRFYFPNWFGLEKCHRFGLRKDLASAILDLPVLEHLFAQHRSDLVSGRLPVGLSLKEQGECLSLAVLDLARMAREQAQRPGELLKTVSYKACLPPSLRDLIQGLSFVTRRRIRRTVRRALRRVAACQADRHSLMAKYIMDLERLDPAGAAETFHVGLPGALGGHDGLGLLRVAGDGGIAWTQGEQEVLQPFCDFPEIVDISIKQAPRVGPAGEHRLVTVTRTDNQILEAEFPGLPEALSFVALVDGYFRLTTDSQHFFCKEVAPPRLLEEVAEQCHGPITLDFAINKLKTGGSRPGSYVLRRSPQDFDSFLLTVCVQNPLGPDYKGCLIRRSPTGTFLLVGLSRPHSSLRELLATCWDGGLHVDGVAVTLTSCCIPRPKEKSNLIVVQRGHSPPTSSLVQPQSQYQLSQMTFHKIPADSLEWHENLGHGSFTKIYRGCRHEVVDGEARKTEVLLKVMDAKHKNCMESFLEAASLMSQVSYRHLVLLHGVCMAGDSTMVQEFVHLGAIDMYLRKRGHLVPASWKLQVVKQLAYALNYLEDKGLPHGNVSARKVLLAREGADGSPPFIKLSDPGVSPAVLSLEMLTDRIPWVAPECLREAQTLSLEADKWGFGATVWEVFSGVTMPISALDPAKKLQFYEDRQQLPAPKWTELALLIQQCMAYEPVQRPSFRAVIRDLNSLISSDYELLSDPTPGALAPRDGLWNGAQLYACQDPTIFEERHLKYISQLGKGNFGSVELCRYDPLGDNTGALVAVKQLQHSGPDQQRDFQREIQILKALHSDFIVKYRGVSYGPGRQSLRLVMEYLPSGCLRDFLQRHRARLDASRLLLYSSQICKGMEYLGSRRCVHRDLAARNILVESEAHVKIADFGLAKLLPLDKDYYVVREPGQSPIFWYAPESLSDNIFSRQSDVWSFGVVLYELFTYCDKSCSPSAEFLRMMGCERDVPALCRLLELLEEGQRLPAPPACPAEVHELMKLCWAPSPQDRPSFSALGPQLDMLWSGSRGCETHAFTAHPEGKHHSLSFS
Test: Mass spectrometry identification of a JAK3 peptide modified by compound
Assay type: binding
Parameters: endogenous in cells; host or cells: Jurkat cells (ATCC TIB-152, clone E6-1) lysate; immunoprecipitated with anti-JAK3 antibody
Conditions: Jurkat cell lysate, 10 μM compound, 45 minutes, JAK3 immunoprecipitation, LC-MS/MS
Description: Mass spectrometry analysis of immunoprecipitated JAK3 after compound treatment was used to determine whether compound example 1 covalently binds to JAK3. Jurkat cell lysate was pre-incubated with 10 μM of compound example 1 for 45 minutes. Control samples were incubated without compound (DMSO controls). Subsequently JAK3 was immunoprecipitated with an anti-JAK3 antibody (Abeam ab45141). In addition, a control experiment was performed with anti-IgG (mock immunoprecipitation). The precipitated proteins were separated by SDS-polyacrylamide gel electrophoresis. The gel was stained with colloidal Coomassie and stained areas of each gel lane were cut out and subjected to in-gel proteolytic digestion with trypsin. The peptides originating from the three samples were labeled with iTRAQ reagents as shown in Table 13 and the combined samples were analyzed with a nano-flow liquid chromatography system coupled online to a tandem mass spectrometer (LC-MS/MS) experiment followed by iTRAQ reporter ion quantification in the MSMS spectra (Ross et al., 2004. Mol. Cell. Proteomics 3(12):1154-1169). The gel area containing JAK3 was analysed for 270 minutes with HCDiq (high mass accuracy MSMS spectra) on a Orbitrap Velos mass spectrometer. For the Mascot search standard parameters plus a variable modification of cysteine by compound example 1 was used. […]

C=CC(=O)Nc1cccc(Cn2ncc3cnc(Nc4cnn(C)c4)nc32)c1 [Example 1, N-(3-((6-((1-Methyl-1H-pyrazol-4-yl)amino)-1H-pyrazolo[3,4-d]pyrimidin-1-yl)methyl)phenyl)acrylamide] was tested, and the “covalent binding to JAK3 (modified residue/peptide)” value was “modified at cysteine 909; also recorded: covalently bound to cystein residue 909 (Cys909) of JAK3”.
